Laboratory results as given in patent publication US20120014917A1, “METHODS OF TREATING HIV PATIENTS WITH ANTI-FIBROTICS” (University of Minnesota, priority 2009, published 2012).
“Also recorded” adds a separate entry of the source.

Legend:
SIV MAC239 = test: Pirfenidone in SIV-infected non-human primate model (FIG. 1 protocol, Example 2); format: in vivo
Description: Venous blood will be used to measure CD4^+ cell count by flow cytometry. Tissue biopsies (LN and ileal GALT samples) are divided; one portion will be processed by immunohistochemical staining for quantitative image analysis to determine the absolute size of the total CD4^+ cell population, and the remaining portion will be processed by flow cytometry to proportionately quantify CD4^+ cells (total, naïve, central memory [CM], and effector memory [EM] T cells). These methods have been published elsewhere [Schacker et al., 2006, Clinical and Vaccine Immunology 13:556-60; Schacker et al., 2005, AIDS 19:2169-71; Schacker et al., 2002, J Clin Invest 110:1133-9; Schacker J Infect Dis 186:1092-7]. For flow cytometry, a portion of LN tissue and GALT will be placed on ice and CD4^+ cells are isolated within 24 hours by gently separating the cells from surrounding tissue by using a mesh screen. One million cells are washed once in FACS wash (PBS supplemented with 0.1% sodium azide and 2% bovine serum albumin; Sigma). After aspiration of the supernatant, cells will be stained with peridin clorophylla protein-conjugated CD4, allophycocyanin conjugated CD8, phycoerythrin conjugated CD27, and fluorescein isothiocyanate-conjugated CD45RO (all BD Pharmingen), and incubated for 30 min at 4° C., followed by another wash. Cells will be fixed with 1% paraformaldahyde (Electron Microscopy Sciences) and analyzed on a FACS Calibur flow cytometer (BD Pharmingen). Lymphocytes will be gated on the basis of characteristic forward and side scatter properties, followed by separation into CD4^+ T cells and CD8^+ T cells on the basis of expression of CD4 and CD8. Naive T cells are classified by expression of CD27 without expression of CD45RO, as described elsewhere [Brenchley et al., 2003, Blood 101:2711-20]. CM T cells will be classified by coexpression of CD27 and CD45RO, and EM T cells are classified by lack of CD27 expression.
To quantify the total CD4^+ T cell population in each compartment, 4-μm sections will be prepared from the fixed tissues and stained with antibody for CD4 by using either clone 1F6 (Ventana Medical Systems) or clone 4B12 (Neomarkers; Lab Vision). Images will be captured to quantify the percentage of tissue area occupied by CD4 by using PHOTOSHOP CS2, version 9.0 imaging software (ADOBE SYSTEMS, Inc.) with plug-ins from REINDEER GRAPHICS. Inc.
To quantify collagen in the TZ, methods similar to those previously published can be used [Schacker et al., 2002, J. Clin. Investig. 110:1133-1139]. Sections (4 μm) are stained using a modified trichrome stain to identify collagen fibers, and approximately 18 images from the TZ are captured and transported into PHOTOSHOP CS imaging software (ADOBE SYSTEMS, Inc.). Image analysis tools from REINDEER GRAPHICS, Inc. (Asheville, N.C.) may provide better sensitivity for isolating collagen fibers to quantify the percent area occupied by collagen.
In this study, six animals were divided into two groups of three animals each. One group received pirfenidone for 2 weeks and then was infected with SIV MAC239. […] Pirfenidone was continued for 12 weeks following infection and then discontinued for 12 weeks (i.e., week 24) and then restarted. Thus, the pirfenidone-treated group would receive pirfenidone from week −2 to week 12 (14 weeks) and from week 24 to week 36 (12 weeks) for a […]. […] The dose of pirfenidone used was 200 mg/kg orally, twice daily (BID) for a total daily dose of 400 mg/kg/day. This corresponds to a human dose of approximately 6.5 mg/kg BID.
A diagram of the protocol can be seen in FIG. 1. Lymph node and rectal biopsy samples were collected at day 0 and again at weeks 4, 12, 24, and 36 after infection. […]

[1] = system: TNF-α, TGF-β1, bFGF, PDGF, and EGF; conditions: reported in Zhang et al. 1998; Cain et al. 1998; cited from earlier work
[2] = system: collagen expression; matrix metalloproteinases (MMPs) and TIMPs; conditions: reported; cited from earlier work
SIV infection = test: 24-week study of pirfenidone plus ARV versus ARV only in SIV infection (FIG. 6 protocol, Example 4); format: in vivo
Procedure: FIG. 6 depicts a study protocol wherein pirfenidone is administered from Week −2 (relative to SIV infection) through the end of the study and co-administration of antiretroviral therapy is initiated at Week 8 and continued through the end of the study.
This example describes a 24-week study according to the protocol depicted in FIG. 6. In short, there were two groups in the study. The first group (group C as depicted in FIG. 6) received only ARV beginning at Week 8 (relative to SIV infection) of the study and continuing through week 24. The second group (group D as depicted in FIG. 6) received pirfenidone beginning at week −2 of the study and ARV beginning at Week 8. Both pirfenidone and ARV were then co-administered through Week 24 of the study. Tissues were biopsied at Week −2. Additional biopsies were conducted at Weeks 12, 16 and 24 (after sacrifice of the animal).

SMILES: Cc1ccc(=O)n(-c2ccccc2)c1 [pirfenidone]
- tolerability, adverse effects or toxicity (SIV MAC239; 200 mg/kg orally BID (400 mg/kg/day)): well-tolerated without adverse effects or toxicity
- peripheral blood CD4 T cell count (SIV MAC239; pirfenidone 200 mg/kg BID orally vs animals not given pirfenidone, FIG. 3A): no significant change; also recorded: no obvious difference
- percent CD4 (CD4%) in peripheral blood (SIV MAC239; pirfenidone 200 mg/kg BID orally vs animals not given pirfenidone, FIG. 3B): no significant change; also recorded: no obvious difference
- plasma SIV RNA load (viral load) (SIV MAC239; pirfenidone 200 mg/kg BID orally vs animals not given pirfenidone, FIG. 3C): no significant change; also recorded: no obvious difference
- fibrosis (percent area of T cell zone occupied by collagen) in lymph nodes (SIV MAC239; pirfenidone 200 mg/kg BID vs animals not given pirfenidone, FIGS. 4, 5A, 11A): decreased; also recorded: significant reduction; also recorded: less fibrosis; also recorded: significant difference
- size of the CD4+ T cell population (area staining positive for CD4) in lymph node T cell zone (SIV MAC239; pirfenidone 200 mg/kg BID vs animals not given pirfenidone, FIGS. 4, 5B, 11C): increased; also recorded: more of the TZ stains positive for CD4^+ T cells; also recorded: higher CD4 numbers; also recorded: significant difference
- proportion of the TZ occupied by collagen (composite, FIG. 12A) (SIV MAC239; pirfenidone only arm vs no treatment): lower
- CD4 population in Peyer's Patches (SIV MAC239; pirfenidone vs control animals, FIG. 4D): higher
- excessive biosynthesis or release of various cytokines such as TNF-α, TGF-β1, bFGF, PDGF, and EGF [1]: inhibit
- balance of matrix metalloproteinases (MMPs) and their endogenous inhibitors (TIMPs) [2]: alter
- collagen expression [2]: decrease
- proportion of the TZ occupied by collagen (composite, FIG. 12A) (SIV infection; ARV + pirfenidone arm vs ARV only): lower
- increase in the TZ area staining positive for CD4+ T cells upon initiation of ARV (SIV infection; animals treated with pirfenidone vs ARV only, FIG. 11D): greater increase
- rate of change in CD4+ area in TZ (SIV infection; co-administration of pirfenidone and ARV relative to ARV alone, FIG. 12B): improves
- absolute number of naïve CD4 T cells of the TZ (SIV infection; group D (pirfenidone + ARV) relative to group C (ARV only), week 16 through week 24, FIG. 9): increase
- number of CD4 T cells in the TZ (TZ area staining positive for CD4+ T cells) (SIV infection; group D (pirfenidone + ARV) relative to group C (ARV only), week 16 through week 24, FIGS. 8, 11D): increased; also recorded: more of the TZ stains positive for CD4^+ T cells
- percentage of CD4 T cells in GALT (SIV infection; group D (pirfenidone + ARV) relative to group C (ARV only), week 24, FIG. 10): increased
- percentage area of the T cell zone with collagen (SIV infection; group D (pirfenidone from week -2 + ARV from week 8) relative to group C (ARV only), FIGS. 7, 11B): significantly lower; also recorded: significant reduction
